Assay results taken from US12268739B2, “Use of toll-like receptor 2 (TLR-2) agonist for modulating human immune response” (Children's Medical Center Corporation, priority 2018, dated 2025).
Entries after “also recorded” stand apart in the source; their conditions may differ.

How the values were obtained:
human adult PBMCs = experiment: Cytokine production by stimulated human adult PBMCs (ELISA / multiplex); assay type: cell-based; conditions: for Adult PBMCs (median ng/ml) IL-6 (N = 7) / Adult PBMCs (median ng/ml) TNFa (N = 13): human adult PBMCs, compounds at 100 µM (FIG. 7), ELISA
Description: ELISAs and Multiplex-Analyte Assays. Supernatants derived from human PBMCs stimulations were assayed by ELISA for TNF and IL-6 (ThermoFisher Scientific; Waltham, MA, USA). Cytokine and chemokine expression profiles (e.g., IFNγ, IL-9, IL-10, IL-12 (p70), IL-13, IL-1β, IL-23, IL-27, IL-28A, IL-33, IL-6, MIP-3α/CCL20, and TNF) in cell culture supernatants were measured using a customized Milliplex® Human Th17 Magnetic Bead Panel according to the manufacturer's instructions (Millipore, Chicago, IL, USA). Assays were read and analyzed on the Luminex® 100/200TM System and xPOTENT® software (Luminex, Austin, TX). A minimum threshold was set at the minimum detectable concentration for each individual assay, defined as three standard deviations above the mean background.
PBMCs were isolated from blood using a Ficoll density gradient. PBMCs either used fresh or were stored at 5×10^7 cells per vial in 1 mL RPMI containing 20% autologous plasma and 10% DMSO at −80° C. until use. […] PBMCs isolated from human adult donors or THP1-NF-κB cells were resuspended at a concentration of 10^5 cells/200 μl of RPMI supplemented with 10% of platelet-poor plasma or THP1 culture medium, respectively. […] After 24 hours of incubation (37° C., 5% CO2), plates were spun down (500×g, room temperature, 5 minutes) and supernatants were harvested for further analysis.

THP1-NF-κB cells = experiment: THP1-NF-κB cell stimulation for 24 hours, secreted luciferase luminescence; assay type: cell-based, human; conditions: for THP1 cells (relative luminescence units, N = 4) Comp at 25 uM / THP1 cells (relative luminescence units, N = 4) Comp at 100 uM: NF-κB-dependent luminescence, 24 hours; for THP1 cells (relative luminescence units, N = 4) Comp at 25 uM: compound at 25 uM; for THP1 cells (relative luminescence units, N = 4) Comp at 100 uM: compound at 100 uM
Description: (§1) THP-1 Cell Line and Culture Conditions. The THP1-Lucia™ cell line was obtained from Invivogen (San Diego, CA). THP1-Lucia cells, which are human monocytic cells derived from the blood of a child with leukemia, contain an NF-kB-inducible Luc reporter construct. This allows NF-kB activation to be measured by quantifying the luminescence from the secreted luciferase enzyme. THP1-Lucia cells were cultured in RPMI 1640 supplemented with 10% non-heat inactivated fetal bovine serum (FBS), 10 mM HEPES, 1.0 mM sodium pyruvate, 50 ug/ml Pen-Strep, and 100 ug/mL Normocin™. Once cultured, the cells were stored in a 37° C. incubator with 5% CO2 and a humidified atmosphere. Cells were passaged every 2-3 days and not allowed to exceed a concentration of 2.0×10^6 cells/ml media.
PBMCs were isolated from blood using a Ficoll density gradient. PBMCs either used fresh or were stored at 5×10^7 cells per vial in 1 mL RPMI containing 20% autologous plasma and 10% DMSO at −80° C. until use. Stimulation plates were prepared by transferring 0.66 μl of DMSO-dissolved compounds (30 or 7.5 mM) to each well of a round bottom 96-well plate. PBMCs isolated from human adult donors or THP1-NF-κB cells were resuspended at a concentration of 10^5 cells/200 μl of RPMI supplemented with 10% of platelet-poor plasma or THP1 culture medium, respectively. 200 μl of the cell suspension were transferred to each well resulting in a final compound concentration of 100 or 25 μM. After 24 hours of incubation (37° C., 5% CO2), plates were spun down (500×g, room temperature, 5 minutes) and supernatants were harvested for further analysis.

human TLR2 [1] = biological target: T1, human TLR2 (Homo sapiens, UniProt O60603); experiment: HEK293 assay for human TLR2 selectivity (NF-κB/SEAP); assay type: cell-based; conditions: 18-24 hours stimulation, titratable
T1 construct: expressed in transfected cells; host or cells: HEK-Blue (human embryonic kidney) cells with an NF-kB-inducible SEAP reporter
Description: (§2) HEK293 assay for human TLR2 and TLR8 selectivity: Human embryonic kidney (HEK) 293 cells expressing human TLR2 or TLR8 with an NF-κB-responsive secreted embryonic alkaline phosphatase (SEAP) reporter gene were obtained from Invivogen (San Diego, CA). Cells were maintained in RPMI or DMEM with 10% heat inactivated-FBS and selection antibiotics per the manufacturer's instructions. Cells were plated at 5×10^5 cells/96-well and stimulated with indicated agonist(s) for 24 hours. Supernatants were harvested and analyzed for NF-κB/SEAP activation using the QuantiBlue kit (Invivogen). Values are expressed as fold change in OD650 over vehicle-only treated samples.

human TLR8 = biological target: T2, human TLR8 (Homo sapiens, UniProt Q9NR97); experiment: HEK293 assay for human TLR8 selectivity (NF-κB/SEAP); assay type: cell-based; conditions: selectivity counter-assay
T2 construct: host or cells: HEK293 cells with an NF-kB-responsive SEAP reporter gene
T2 sequence (Q9NR97 27-1041): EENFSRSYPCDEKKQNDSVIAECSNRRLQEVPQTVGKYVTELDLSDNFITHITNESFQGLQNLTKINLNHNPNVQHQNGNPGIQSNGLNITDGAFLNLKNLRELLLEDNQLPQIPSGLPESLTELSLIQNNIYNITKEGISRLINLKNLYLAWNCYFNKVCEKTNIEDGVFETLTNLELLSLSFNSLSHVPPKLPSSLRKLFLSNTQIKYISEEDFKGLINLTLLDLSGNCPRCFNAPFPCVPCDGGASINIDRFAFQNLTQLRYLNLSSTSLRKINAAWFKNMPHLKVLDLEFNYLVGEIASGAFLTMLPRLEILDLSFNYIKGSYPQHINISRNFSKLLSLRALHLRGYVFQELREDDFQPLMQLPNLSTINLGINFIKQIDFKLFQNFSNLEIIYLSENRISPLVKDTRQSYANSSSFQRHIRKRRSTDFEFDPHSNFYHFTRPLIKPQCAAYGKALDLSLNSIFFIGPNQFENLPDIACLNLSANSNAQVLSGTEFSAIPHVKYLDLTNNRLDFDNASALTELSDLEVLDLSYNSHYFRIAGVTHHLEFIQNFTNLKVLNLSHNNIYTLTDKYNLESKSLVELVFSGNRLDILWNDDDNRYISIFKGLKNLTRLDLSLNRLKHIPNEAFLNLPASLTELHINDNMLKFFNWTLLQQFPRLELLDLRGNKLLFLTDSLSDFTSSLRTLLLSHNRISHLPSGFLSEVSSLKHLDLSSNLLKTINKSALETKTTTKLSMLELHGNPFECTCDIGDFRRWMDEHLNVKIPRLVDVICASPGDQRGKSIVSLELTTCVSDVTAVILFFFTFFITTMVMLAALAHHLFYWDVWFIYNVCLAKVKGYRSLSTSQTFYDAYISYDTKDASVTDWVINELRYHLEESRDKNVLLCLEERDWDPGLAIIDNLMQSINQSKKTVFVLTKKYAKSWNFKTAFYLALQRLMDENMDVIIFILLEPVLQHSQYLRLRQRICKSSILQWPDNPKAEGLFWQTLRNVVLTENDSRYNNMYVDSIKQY
Description: as §2

[2] = test system: NF-κB reporter THP1 cells; experiment: NF-kB-induced luminescence HTS in THP1-Lucia cells (384-well); assay type: cell-based, human; conditions: ranked at 3.3 μM; ~200,000 compounds tested
Text: HTS Overview: To identify immunomodulators/adjuvants that robustly activate human immune cells, ˜200,000 small molecules were screening in a THP1 cell-based assay. The chemical libraries screened included known bioactive and commercial libraries from various sources including commercial libraries such as ChemDiv, ChemBridge, and Asinex. All libraries were owned and provided by the Institute of Chemistry and Cell Biology (ICCB)—Longwood (Harvard Medical School). The project primary screen incorporated two distinct arms: a) a luciferase-based screen which corresponds to the relative activation of the NF-κB reporter; and b) a fluorescence-based screen, corresponding to the phenotypic adherence, a distinct marker of cell activation, of the human monocytic THP-1 cell lines. Described herein are small molecules identified in the screen that induce NF-kB activity based on a luciferase-based THP-1 cell screen.
as §1
NF-kB-induced Luminescence Assay. THP1-Lucia cells between passage 15 and 18 and suspended in culture medium were dispensed into 384-well black clear-bottom plates (Corning 3712) at 30,000 cells/30 μl/well using a Combi liquid dispenser. To allow comparison to a benchmark small molecule with known immune stimulating activity, cells at the same concentration were stimulated with 50 μM R848, a TLR7/8 agonist, in 0.3% DMSO and added to every other well of column 24, which was left empty of cells, by multichannel pipette at the same volume. Five μl of 700 nM Phorbol myristate acetate (PMA) in THP1 culture media and 2.3% DMSO, a known peripheral blood cell mitogen, was added to every other well of column 23 by multichannel pipette (final concentration in well: 100 nM in 0.3% DMSO). Five μl of THP1 culture media with 2.3% DMSO was added to the remaining wells of column 23 by multichannel pipette (final concentration 0.3% DMSO). One hundred nl aliquots of library compounds diluted in 100% DMSO were transferred from their original 384-well plates to the assay plates using a Seiko pin transfer machine. Each library plate was pinned in duplicate, yielding two assay plates with identical conditions for comparison. Plates were then incubated for 24 hours at 37 C with 5% CO2 in humid conditions. Following incubation, 10 μL of supernatant was removed from each well and transferred to a white plate (Corning 3570) using a Vprep liquid transfer machine. 10 μL of recombinant Lucia protein (Invivogen) diluted 1:2000 in THP1 culture media was added to empty well 24P. Using a Combi liquid dispenser, 50 μL/well of Quanti-Luc substrate (Invivogen) diluted 1:3 in sterile water was added to the assay plate. Immediately after adding the substrate, the luminescence was read using a PerkinElmer Envision plate reader.

human TLR2 [3] = biological target: T1, human TLR2; experiment: HEK-Blue human TLR cell screening (NF-κB SEAP reporter); assay type: cell-based; conditions: compounds at 10 μM, fold change over negative controls
Description: HEK cell screening. Human embryonic kidney (HEK)-Blue cell lines expressing human TLRs (hTLRs) and a secreted embryonic alkaline phosphatase (SEAP) reporter under the control of an NF-κB-inducible promoter were cultured in 96-well plates (50,000-75,000 cells/200 μl/well) and stimulated with the indicated compounds at 10 µM or positive controls. The media added to the wells is designed for detection of NF-κB-induced SEAP expression. After 16-24 hours of incubation optical density (OD) was read at 650 nm on a Molecular Devices SpectraMax 340PC absorbance detector. Positive controls employed in this assay were: heat-killed Listeria monocytogenes (1×10^8 cells/ml) for hTLR2, Poly (I:C) HMW (1 μg/ml) for hTLR3, ? E. coli K12 LPS (100 ng/ml) for hTLR4, S. typhimurium flagellin (100 ng/ml) for hTLR5, CL307 (1 μg/ml) for hTLR7, CL075 (1 μg/ml) for hTLR8 and CpG ODN 2006 (1 μg/ml) for hTLR9.

T1 sequence (O60603 21-784): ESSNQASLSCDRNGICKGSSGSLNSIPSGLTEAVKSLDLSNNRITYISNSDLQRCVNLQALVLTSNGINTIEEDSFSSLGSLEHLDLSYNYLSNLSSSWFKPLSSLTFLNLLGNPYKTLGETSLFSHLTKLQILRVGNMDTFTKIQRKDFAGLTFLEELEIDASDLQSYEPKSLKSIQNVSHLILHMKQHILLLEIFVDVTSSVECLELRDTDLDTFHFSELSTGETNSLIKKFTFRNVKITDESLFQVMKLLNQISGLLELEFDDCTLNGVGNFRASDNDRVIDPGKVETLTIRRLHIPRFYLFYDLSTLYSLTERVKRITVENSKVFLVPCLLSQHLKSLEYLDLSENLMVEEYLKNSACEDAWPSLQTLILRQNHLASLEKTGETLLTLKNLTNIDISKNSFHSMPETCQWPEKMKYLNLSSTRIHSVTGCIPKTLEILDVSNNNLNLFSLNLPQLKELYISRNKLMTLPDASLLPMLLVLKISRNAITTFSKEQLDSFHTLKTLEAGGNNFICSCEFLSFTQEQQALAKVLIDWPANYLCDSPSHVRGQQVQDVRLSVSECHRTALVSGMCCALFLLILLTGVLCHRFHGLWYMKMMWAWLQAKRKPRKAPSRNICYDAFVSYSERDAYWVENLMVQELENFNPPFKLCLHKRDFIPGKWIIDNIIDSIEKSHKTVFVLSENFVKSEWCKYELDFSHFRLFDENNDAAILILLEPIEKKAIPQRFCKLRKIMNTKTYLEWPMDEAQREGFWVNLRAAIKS

| Compound | TLR2 activation in HEK TLR2 cells (SEAP) (human TLR2 [1]) | TLR8 induction in HEK TLR8 cells (SEAP) (human TLR8) | Adult PBMCs (median ng/ml) IL-6 (N = 7) (human adult PBMCs; 24 hours) | Adult PBMCs (median ng/ml) TNFa (N = 13) (human adult PBMCs; 24 hours) | THP1 cells (relative luminescence units, N = 4) Comp at 25 uM (THP1-NF-κB cells) | THP1 cells (relative luminescence units, N = 4) Comp at 100 uM (THP1-NF-κB cells) | Efficacy in activating NF-κB in THP1 cells (screening hits) [2] | Activation of human TLR2 (NF-κB activation in TLR-expressing HEK-Blue cells) (human TLR2 [3]) | Activation of human adult PBMCs (cytokine levels by multiplex assay) (human adult PBMCs; 384-well plates, 24 hours, 0.05-33 μM) | Activation of human adult PBMCs (human adult PBMCs; 384 and 96 well assay) | Activation of THP1 cells (THP1-NF-κB cells; 384 and 96 well assay) |
| --- | --- | --- | --- | --- | --- | --- | --- | --- | --- | --- | --- |
| CCOC(=O)c1c(NC(=S)Nc2ccccc2OC)sc2c1CC(C)(C)OC2 [Compound 070] |  |  |  |  |  |  | most effective | activate human TLR2 |  |  |  |
| COC(=O)c1c(NC(=O)CN2CCC3(CC2)OCCO3)sc2c1CCCC2 [Compound 004] |  |  |  |  |  |  | most effective NF-κB activators; also recorded: most effective NF-kB activators | activate human TLR2; also recorded: activated the human TLR2-expressing human embryonic kidney (HEK)-Blue cell line | activates human adult PBMCs in a concentration-dependent manner | induced activation | induced activation of THP1 cells |

More lines, main results first:

| TLR2 activation in HEK TLR2 cells (SEAP) (human TLR2 [1]) | TLR8 induction in HEK TLR8 cells (SEAP) (human TLR8) | Compound | Adult PBMCs (median ng/ml) IL-6 (N = 7) (human adult PBMCs; 24 hours) | Adult PBMCs (median ng/ml) TNFa (N = 13) (human adult PBMCs; 24 hours) | THP1 cells (relative luminescence units, N = 4) Comp at 25 uM (THP1-NF-κB cells) | THP1 cells (relative luminescence units, N = 4) Comp at 100 uM (THP1-NF-κB cells) | Efficacy in activating NF-κB in THP1 cells (screening hits) [2] | Activation of human TLR2 (NF-κB activation in TLR-expressing HEK-Blue cells) (human TLR2 [3]) | Activation of human adult PBMCs (cytokine levels by multiplex assay) (human adult PBMCs; 384-well plates, 24 hours, 0.05-33 μM) | Activation of human adult PBMCs (human adult PBMCs; 384 and 96 well assay) | Activation of THP1 cells (THP1-NF-κB cells; 384 and 96 well assay) |
| --- | --- | --- | --- | --- | --- | --- | --- | --- | --- | --- | --- |
| induced TLR2 specific activation | without induction of TLR8 | CNC(=O)c1c(NC(=O)c2ccc(S(=O)(=O)N(C)C)cc2)sc2c1CCCC2 [Compound 80.3] | 0.008 ng/mL | 0.008 ng/mL | 2835 relative luminescence units | 3630 relative luminescence units |  |  |  |  |  |
| induced TLR2 specific activation | without induction of TLR8 | CNC(=O)c1c(NC(=O)c2ccc(S(=O)(=O)N(C)C)cc2)sc(C)c1C [Compound 80.15] | 0.008 ng/mL | 0.0225 ng/mL | 6369 relative luminescence units | 9715 relative luminescence units |  |  |  |  |  |
| induced TLR2 specific activation | without induction of TLR8 | CNC(=O)c1c(NC(=O)c2ccc(S(=O)(=O)N3CCCC3)cc2)sc2c1CCC2 [Compound 80.10] | 0.012 ng/mL | 0.008 ng/mL | 3576 relative luminescence units | 4814 relative luminescence units |  |  |  |  |  |
